Tests used:
Dipeptidyl peptidase 9 = Dipeptidyl peptidase 9 (Homo sapiens, UniProt Q86TI2); experiment: Inhibition of DPP9
Dipeptidyl peptidase 8 = Dipeptidyl peptidase 8 (Homo sapiens, UniProt Q6V1X1); experiment: Inhibition of DPP8
Dipeptidyl peptidase 2 = Dipeptidyl peptidase 2 (Homo sapiens, UniProt Q9UHL4); experiment: Inhibition of QPP

Measured: IC50

Sequence of Dipeptidyl peptidase 8 (Q6V1X1 whole entry): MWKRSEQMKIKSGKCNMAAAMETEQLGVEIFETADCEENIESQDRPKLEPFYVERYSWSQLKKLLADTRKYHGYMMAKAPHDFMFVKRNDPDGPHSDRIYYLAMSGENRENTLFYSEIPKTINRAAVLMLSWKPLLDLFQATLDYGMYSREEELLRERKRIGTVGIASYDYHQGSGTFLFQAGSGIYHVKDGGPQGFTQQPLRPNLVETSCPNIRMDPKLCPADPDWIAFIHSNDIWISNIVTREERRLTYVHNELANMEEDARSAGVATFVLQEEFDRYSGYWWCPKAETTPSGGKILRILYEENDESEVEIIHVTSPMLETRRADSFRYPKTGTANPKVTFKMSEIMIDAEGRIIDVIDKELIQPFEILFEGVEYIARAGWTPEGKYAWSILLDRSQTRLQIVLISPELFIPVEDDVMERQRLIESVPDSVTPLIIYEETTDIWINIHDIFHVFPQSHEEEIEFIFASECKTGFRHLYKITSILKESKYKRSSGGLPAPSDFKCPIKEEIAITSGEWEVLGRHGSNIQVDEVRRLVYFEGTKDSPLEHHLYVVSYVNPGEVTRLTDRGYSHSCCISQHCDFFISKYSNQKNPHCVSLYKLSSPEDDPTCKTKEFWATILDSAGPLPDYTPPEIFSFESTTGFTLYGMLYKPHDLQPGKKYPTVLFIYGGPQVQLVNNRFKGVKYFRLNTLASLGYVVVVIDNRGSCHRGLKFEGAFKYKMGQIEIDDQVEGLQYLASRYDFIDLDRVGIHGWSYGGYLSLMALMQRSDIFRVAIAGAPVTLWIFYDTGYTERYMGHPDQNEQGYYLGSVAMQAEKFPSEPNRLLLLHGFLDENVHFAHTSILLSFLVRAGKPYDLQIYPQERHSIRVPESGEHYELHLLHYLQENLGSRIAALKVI
Sequence of Dipeptidyl peptidase 9 (Q86TI2 whole entry): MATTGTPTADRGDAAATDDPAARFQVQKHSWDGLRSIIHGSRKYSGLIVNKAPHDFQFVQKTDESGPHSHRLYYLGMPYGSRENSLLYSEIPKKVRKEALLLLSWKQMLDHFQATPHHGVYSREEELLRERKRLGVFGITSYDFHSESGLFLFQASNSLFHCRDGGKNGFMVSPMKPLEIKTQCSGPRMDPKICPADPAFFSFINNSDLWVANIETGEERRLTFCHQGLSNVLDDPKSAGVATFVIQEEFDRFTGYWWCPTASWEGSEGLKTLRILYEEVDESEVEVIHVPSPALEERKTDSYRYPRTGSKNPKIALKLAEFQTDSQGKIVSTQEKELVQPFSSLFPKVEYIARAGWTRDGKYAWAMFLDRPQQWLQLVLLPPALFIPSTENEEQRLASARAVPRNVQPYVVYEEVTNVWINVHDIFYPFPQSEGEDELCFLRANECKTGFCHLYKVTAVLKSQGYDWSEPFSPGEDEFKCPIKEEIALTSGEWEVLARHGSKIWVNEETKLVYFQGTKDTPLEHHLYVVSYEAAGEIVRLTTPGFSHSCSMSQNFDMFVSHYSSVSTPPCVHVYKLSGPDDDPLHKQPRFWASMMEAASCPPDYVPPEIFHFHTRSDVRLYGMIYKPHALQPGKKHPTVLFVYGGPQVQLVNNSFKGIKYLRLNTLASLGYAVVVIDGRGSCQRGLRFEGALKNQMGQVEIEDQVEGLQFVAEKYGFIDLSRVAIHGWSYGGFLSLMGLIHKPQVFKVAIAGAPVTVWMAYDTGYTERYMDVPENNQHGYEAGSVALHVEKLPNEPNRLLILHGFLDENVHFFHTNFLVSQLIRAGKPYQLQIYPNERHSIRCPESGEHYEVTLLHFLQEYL

N[C@H]1C[C@H](N2CCn3c(nnc3C(F)(F)F)C2)CC[C@@H]1c1cc(F)c(F)cc1F
> 100 µM: all assays above
